In patent publication US12195427B2, “MASP-2 inhibitors and methods of use” (priority 2018, dated 2025):

Target: MASP-2 CCP2-SP (Homo sapiens (Human), UniProt O00187)
Experiment: MASP-2 co-crystallization, X-ray crystallography and structure analysis (H-bonds, van der Waals contacts);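 on Ligand-pharmacophore element distance, pharmacophore element C2: distance from averaged pharmacophore element to bound ligand; missing value means element absent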;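 on Ligand-pharmacophore element distance, pharmacophore element C3: distance from averaged pharmacophore element to bound ligand; missing value means element absent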;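 on Ligand-pharmacophore element distance, pharmacophore element C4: distance from averaged pharmacophore element to bound ligand; missing value means element absent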;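 on Ligand-pharmacophore element distance, pharmacophore element C5: distance from averaged pharmacophore element to bound ligand; missing value means element absent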
Design: van der Waals contact distance, MASP-2 HIS 483 atom CD2 / van der Waals contact distance, MASP-2 HIS 483 atom NE2 / van der Waals contact distance, SER 654 C to compound atom / van der Waals contact distance, SER 654 O to compound atom / van der Waals contact distance, TRP 655 C to compound atom / van der Waals contact distance, MASP-2 GLY 528 atom CA / van der Waals contact distance TRP 655 atom CZ3 / van der Waals contact distance TRP 655 atom N / van der Waals contact distance TRP 655 atom CE3 / van der Waals contact distance GLY 656 atom C / van der Waals contact distance GLY 656 atom CA / van der Waals contact distance GLY 656 atom O / van der Waals contact distance, MASP-2 TYR 607 atom CD1 / van der Waals contact distance, MASP-2 PRO 606 atom O / d(C3,CA1) / d(CA1,N1)2 / d(H4,O1) / d(H4,O2) / d(O1,O2) / d(CA1,O2) / d(CA6,O1) / d(CA6,O2) / d(CA1,C5) / d(O2,H3) / d(N2,C2) / d(CA5,N2) / d(N2,C4) / d(N2,C6) / d(N2,CA3) / d(N2,O3) / d(O4,H2): unit not given beside the values
Conditions: for H-bond distance to MASP-2 ASP 627 atom OD1: ASP 627 OD1; for H-bond distance to MASP-2 GLY 656 atom N: GLY 656 N; for H-bond distance to MASP-2 SER 628 atom O: SER 628 O; for H-bond distance to MASP-2 SER 657 atom O: SER 657 O; for van der Waals contact distance, SER 654 C to compound atom: Table A2-11; for van der Waals contact distance TRP 655 atom O: MASP-2 TRP 655 O; for van der Waals contact distance SER 657 atom C: MASP-2 SER 657 C, columns c12-c13 (inferred); for Pharmacophore protein distance to MET_658 (first MET_658 column): 6th residue column; for Pharmacophore protein distance to MET_658 (second MET_658 column): 9th residue column; for H-bond distance to MASP-2 ASP 627 atom OD2: ASP 627 OD2
In short: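 Inhibitor complexes were obtained by soaking crystals of E. coli-derived human MASP-2 CCP2-SP. Synchrotron diffraction at 1.0 wavelength, molecular replacement and partial refinement gave the models; one pose per ligand was chosen for contact analysis.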

[1] = Table A5-1 pharmacophore: distance between elements, S2/S1 region
[2] = Table A5-2 pharmacophore distance, S3/S4 region
[3] = Table A7-1, between pharmacophore elements of the bound compound
[4] = Table A8-6, nearest protein atom in cell to the left

Chain of MASP-2 CCP2-SP (O00187 445-686): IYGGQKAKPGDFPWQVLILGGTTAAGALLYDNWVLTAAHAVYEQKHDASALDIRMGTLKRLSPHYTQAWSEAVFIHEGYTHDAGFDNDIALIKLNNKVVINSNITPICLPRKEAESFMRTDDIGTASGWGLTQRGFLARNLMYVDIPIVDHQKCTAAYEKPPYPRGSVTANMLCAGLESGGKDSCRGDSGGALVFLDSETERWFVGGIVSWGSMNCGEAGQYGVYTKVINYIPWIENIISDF
Chain of MASP-2 CCP2-SP (O00187 364-432 partner): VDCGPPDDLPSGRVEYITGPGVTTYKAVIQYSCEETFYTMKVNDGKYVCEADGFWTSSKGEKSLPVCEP

SMILES: N=C(N)c1ccc(CNC(=O)[C@@H]2CCN2C(=O)[C@H]2Cc3ccccc3CN2)cc1 [compound 1034]
- H-bond distance to MASP-2 ASP 627 atom OD1 (Table A1 (H-Bonds)): 2.9
- H-bond distance to MASP-2 GLN 665 atom OE1 (Table A1 (H-Bonds), GLN 665 OE1): 3.26
- H-bond distance to MASP-2 GLN 665 atom OE1 (second bond) (Table A1 (H-Bonds), GLN 665 OE1, second column): 2.8
- H-bond distance to MASP-2 GLY 656 atom N (Table A1 (H-Bonds)): 2.91
- H-bond distance to MASP-2 SER 628 atom O (Table A1 (H-Bonds)): 2.91
- H-bond distance to MASP-2 SER 654 atom O (Table A1 (H-Bonds), SER 654 O): 2.99
- H-bond distance to MASP-2 SER 657 atom O (Table A1 (H-Bonds)): 2.75
- van der Waals contact distance, MASP-2 PRO 606 atom CG (Table A2-4): 3.71
- van der Waals contact distance, MASP-2 amino acid atom to compound atom (Table A2-10, ARG 630 NH2, GLY 631, ASP 632, SER 633): 3.11
- van der Waals contact distance, SER 654 C to compound atom: 3.83
- van der Waals contact distance, TRP 655 CA to compound atom (Table A2-12): 3.42
- van der Waals contact distance TRP 655 atom O (Table A2-13): 3.77
- van der Waals contact distance SER 657 atom C (Table A2-14): 3.51
- Ligand-pharmacophore element distance, pharmacophore element C2 (Table A4-1): 2.4
- Ligand-pharmacophore element distance, pharmacophore element C3 (Table A4-1): 0
- Ligand-pharmacophore element distance, pharmacophore element C4 (Table A4-1): 0
- Ligand-pharmacophore element distance, pharmacophore element C5 (Table A4-1): 0
- Ligand-pharmacophore element distance, pharmacophore element C6 (Table A4-1): 0
- Ligand-pharmacophore element distance, pharmacophore element C7 (Table A4-1): 0
- Ligand-pharmacophore element distance, pharmacophore element CA1 (Table A4-1): 0.28
- Ligand-pharmacophore element distance, pharmacophore element CA2 (Table A4-1): 0
- Ligand-pharmacophore element distance, pharmacophore element CA3 (Table A4-1): 0
- Ligand-pharmacophore element distance, pharmacophore element CA4 (Table A4-1): 0
- Ligand-pharmacophore element distance, pharmacophore element CA5 (Table A4-1, element CA5): 0.98
- Ligand-pharmacophore element distance, pharmacophore element CA6 (Table A4-1): 0
- Ligand-pharmacophore element distance, pharmacophore element H1 (Table A4-2, element H1): 0
- Ligand-pharmacophore element distance, pharmacophore element H2 (Table A4-2, element H2): 0
- Ligand-pharmacophore element distance, pharmacophore element H3 (Table A4-2, element H3): 1.08
- Ligand-pharmacophore element distance, pharmacophore element H4 (Table A4-2, element H4): 3.56
- Ligand-pharmacophore element distance, pharmacophore element N1 (Table A4-2, element N1): 1.87
- Ligand-pharmacophore element distance, pharmacophore element N2 (Table A4-2, element N2): 0.86
- Ligand-pharmacophore element distance, pharmacophore element O1 (Table A4-2, element O1): 0.39
- Ligand-pharmacophore element distance, pharmacophore element O2 (Table A4-2, element O2): 0.49
- Ligand-pharmacophore element distance, pharmacophore element O3 (Table A4-2, element O3): 0
- Ligand-pharmacophore element distance, pharmacophore element O4 (Table A4-2, element O4): 0
- d(CA1,N1) [1]: 3.64
- d(CA1,O1) [1]: 4.35
- d(CA1,O2) [1]: 4.19
- d(H4,O1) [1]: 4.86
- d(H4,O2) [1]: 4.31
- d(O1,O2) [1]: 3.48
- d(CA5,N2) [2]: 3.72
- d(N2,C2) [2]: 2.26
- d(O2,H3) [2]: 2.74
- d(O2,N2) [2]: 3.03
- a(CA1, O1, O2) (Table A6-1 pharmacophore angle): 111.64
- a(O1, O2, H4) (Table A6-1 pharmacophore angle): 135.95
- A(N1, CA1, O1) a) (Table A6-1 pharmacophore angle, all compounds with protonatable center N1 except Methyl-amino-pyridine): 160.69
- a(O1, O2, H3) (Table A6-2 pharmacophore angle): 135.88
- a(O1, O2, N2) (Table A6-2 pharmacophore angle): 137.69
- a(O2, N2, C2) (Table A6-2 pharmacophore angle): 100.68
- Pharmacophore torsion angle a(H4, O1, O2, H3) [3]: 93.33
- Pharmacophore torsion angle a(H4, O1, O2, N2) [3]: 142.83
- Pharmacophore torsion angle a(N1, CA1, O2, H4) [3]: −127.27
- Pharmacophore torsion angle a(O1, H4, O2, CA1) [3]: −61.32
- Pharmacophore torsion angle a(O1, O2, N2, C2) [3]: 68.39
- Pharmacophore torsion angle a(O1, O2, N2, CA5) (Table A7-2, between pharmacophore elements of the bound compound): 137.68
- Pharmacophore protein distance to MET_658 (first MET_658 column) [4]: 2.86
- Pharmacophore protein distance to MET_658 (second MET_658 column) [4]: 3.46
- Pharmacophore protein distance to GLY_528 [4]: 3.79
- Pharmacophore protein distance to PHE_529 [4]: 3.09
- Pharmacophore protein distance to PRO_608 [4]: 2.97
- Pharmacophore protein distance to SER_611 [4]: 3.32
- Pharmacophore protein distance to TRP_655 (Table A8-6, pharmacophore elements C6, CA3, O3, H1, nearest protein atom in cell to the left): 3.27

SMILES: C[C@H](NC(=O)[C@H]1C[C@H](c2ccccc2)CN1)C(=O)NCc1ccc(C(=N)N)cc1 [compound 1036]
- H-bond distance to MASP-2 ASP 627 atom OD2 (Table A1 (H-Bonds)): 2.96
- H-bond distance to MASP-2 GLY 656 atom N (Table A1 (H-Bonds)): 3.22
- H-bond distance to MASP-2 SER 628 atom O (Table A1 (H-Bonds)): 2.9
- H-bond distance to MASP-2 SER 657 atom O (Table A1 (H-Bonds)): 2.93
- van der Waals contact distance, MASP-2 HIS 483 atom CD2 (Table A2-1): 3.81
- van der Waals contact distance, MASP-2 PHE 529 atom CE2 (Table A2-3): 3.72
- van der Waals contact distance TRP 655 atom N (Table A2-13, MASP-2 TRP 655 N): 3.58
- van der Waals contact distance GLY 656 atom O (Table A2-14, MASP-2 GLY 656 O): 3.55
- van der Waals contact distance SER 657 atom C (Table A2-14): 3.57

SMILES: C[C@H](NC(=O)[C@H]1C[C@@H](c2ccccc2)CN1)C(=O)NCc1ccc(C(=N)N)cc1 [compound 1037]
- H-bond distance to MASP-2 ASP 627 atom OD2 (Table A1 (H-Bonds)): 2.91
- H-bond distance to MASP-2 GLY 656 atom N (Table A1 (H-Bonds)): 3.35
- H-bond distance to MASP-2 SER 657 atom O (Table A1 (H-Bonds)): 2.85
- van der Waals contact distance, MASP-2 PHE 529 atom CE1 (Table A2-3): 3.27
- van der Waals contact distance, MASP-2 PHE 529 atom CE2 (Table A2-3): 3.73
- van der Waals contact distance, MASP-2 PRO 606 atom C (Table A2-4): 3.89
- van der Waals contact distance, MASP-2 PRO 606 atom O (Table A2-4): 3.73
- van der Waals contact distance GLY 656 atom C (Table A2-13, MASP-2 GLY 656 C): 3.7
- van der Waals contact distance TRP 655 atom O (Table A2-13): 3.25
- van der Waals contact distance GLY 656 atom N (Table A2-14, MASP-2 GLY 656 N): 3.86
- van der Waals contact distance SER 657 atom C (Table A2-14): 3.73
- Ligand-pharmacophore element distance, pharmacophore element C2 (Table A4-1): 0
- Ligand-pharmacophore element distance, pharmacophore element C3 (Table A4-1): 0
- Ligand-pharmacophore element distance, pharmacophore element C4 (Table A4-1): 0
- Ligand-pharmacophore element distance, pharmacophore element C5 (Table A4-1): 0
- Ligand-pharmacophore element distance, pharmacophore element C6 (Table A4-1): 0
- Ligand-pharmacophore element distance, pharmacophore element C7 (Table A4-1): 0
- Ligand-pharmacophore element distance, pharmacophore element CA1 (Table A4-1): 0.27
- Ligand-pharmacophore element distance, pharmacophore element CA2 (Table A4-1): 0
- Ligand-pharmacophore element distance, pharmacophore element CA3 (Table A4-1): 0
- Ligand-pharmacophore element distance, pharmacophore element CA4 (Table A4-1): 0
- Ligand-pharmacophore element distance, pharmacophore element CA6 (Table A4-1): 0
- d(O2,H3) [2]: 3.99
- Pharmacophore torsion angle a(H4, O1, O2, H3) [3]: 57.29
- Pharmacophore torsion angle a(N1, CA1, O2, H4) [3]: −92.49
- Pharmacophore protein distance to MET_658 (first MET_658 column) [4]: 2.38
- Pharmacophore protein distance to MET_658 (second MET_658 column) [4]: 3.03
- Pharmacophore protein distance to SER_611 [4]: 2.19

SMILES: C[C@H](NC(=O)[C@H](N)CCCc1ccccc1)C(=O)NCc1ccc(C(=N)N)cc1 [compound 1042]
- H-bond distance to MASP-2 ASP 627 atom OD1 (Table A1 (H-Bonds)): 3.32
- H-bond distance to MASP-2 GLY 656 atom O (Table A1 (H-Bonds), GLY 656 O): 2.34
- H-bond distance to MASP-2 SER 628 atom O (Table A1 (H-Bonds)): 2.74
- H-bond distance to MASP-2 SER 657 atom O (Table A1 (H-Bonds)): 2.65
- van der Waals contact distance, MASP-2 HIS 483 atom NE2 (Table A2-1): 3.56
- van der Waals contact distance, MASP-2 PHE 529 atom CZ (Table A2-3): 3.57
- van der Waals contact distance, SER 654 C to compound atom: 3.36
- van der Waals contact distance, TRP 655 C to compound atom (Table A2-12): 3.57
